The results in this text go back to US10961199B2 (3B Pharmaceuticals GmbH, priority 2012, dated 2021).

One assay concerns the target T1, CCR1 (h) (Homo sapiens, UniProt P32246).
T1 construct: Cerep P1
T1 sequence (P32246 1-355): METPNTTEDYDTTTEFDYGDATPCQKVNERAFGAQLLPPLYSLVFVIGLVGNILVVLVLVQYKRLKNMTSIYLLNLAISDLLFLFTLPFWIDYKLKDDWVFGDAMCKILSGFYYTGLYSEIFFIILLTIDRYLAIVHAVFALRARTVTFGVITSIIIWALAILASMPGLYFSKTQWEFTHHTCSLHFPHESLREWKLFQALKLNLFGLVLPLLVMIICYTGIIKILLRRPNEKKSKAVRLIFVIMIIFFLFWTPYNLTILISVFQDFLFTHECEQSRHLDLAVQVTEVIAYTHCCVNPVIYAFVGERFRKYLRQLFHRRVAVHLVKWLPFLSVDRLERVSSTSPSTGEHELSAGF
Put plainly: ExpresSProfile CCR1 (h) agonist radioligand. It counts as binding. Particulars: Reference Compound; read-out: Ki Ref.

For a further assay, the target named is T2, CXCR2 (IL-8B) (h) (Homo sapiens, UniProt P25025).
T2 construct: Cerep P1
T2 sequence (P25025 1-360): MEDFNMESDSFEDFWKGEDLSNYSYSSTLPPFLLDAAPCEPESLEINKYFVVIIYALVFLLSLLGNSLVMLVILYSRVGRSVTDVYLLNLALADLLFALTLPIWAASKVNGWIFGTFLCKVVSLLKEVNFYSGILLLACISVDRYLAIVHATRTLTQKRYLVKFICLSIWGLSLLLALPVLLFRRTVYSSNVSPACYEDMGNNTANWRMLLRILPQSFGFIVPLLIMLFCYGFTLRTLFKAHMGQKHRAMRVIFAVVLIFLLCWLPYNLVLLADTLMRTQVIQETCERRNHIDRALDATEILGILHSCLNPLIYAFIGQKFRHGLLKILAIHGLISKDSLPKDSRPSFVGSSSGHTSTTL
Put plainly: ExpresSProfile CXCR2 (IL-8B) (h) agonist radioligand. In kind it is binding. The conditions noted are these: Reference Compound.

Assay [1] concerns the target T3, NTR1 (Homo sapiens, UniProt P30989). The assay is described as follows: NTR1 radioligand binding assay (RLB, Cerep). Details: host or cells: CHO cells (receptor preparation). Particulars: CHO cells recombinantly expressing the human receptor; 0.05 nM 125I-(Tyr3-neurotensin); 60 min at 4° C. As to the method:
Radioligand Binding Assay
In order to determine the binding affinity of compounds comprising a radiolabel for NTR1, a radioligand binding assay was carried out. A radioligand is a radioactive biochemical substance that is used for diagnosis or for research-oriented study of cellular receptor systems of the body. In […] systems it is often used to quantify the binding of a test molecule to the binding site of radioligand. The higher the affinity of the molecule, the more radioligand is displaced from the binding site. The amount of bound radioligand can be measured by scintillation counting and thereby quantified. This assay is commonly used to calculate binding constants of molecules to receptors.
The NTR1 radioligand binding assay was performed by Cerep (Celle l'Evescault, France; Catalog reference 0109) according to Vita et al., FEBS Lett., 1993, 317, 139-142. NTR1 was prepared from CHO cells recombinantly expressing the human receptor and incubated with 0.05 nM ^125I-(Tyr^3-neurotensin) and serial dilutions of the test compounds. […] The result for each test compound is expressed as IC50 concentration and provides a measure for the affinity of the test compound for NTR1.

The target in assay [2] is T3, NTR1. The assay is described as follows: Functional Ca2+ mobilisation assay (antagonist assay). It counts as cell-based. Also noted: HA-tagged puromycin N-acetyltransferase-ubiquitin fusion (pExoIN2 system; HEK293 lines only) (N); host or cells: HT29 (endogenous receptor) or HEK293 stably transfected with NTR1. The conditions noted are these: HT29 or NTR1-expressing HEK293 cells, EC80-concentration of agonist. The source says:
Functional Ca^2+ Mobilisation Assay
Ca^2+ ions are usually kept at nanomolar levels in the cytosol of cells, and act in a number of signal transduction pathways as second messengers. […] Changes in calcium ion concentration in standard assay protocols can be readily detected with fluorescent dyes that emit light when changes in intracellular Ca^2+ ion concentration occur. Given the transient nature of these responses, they are often read with instrumentation that has ‘inject and read’ capability.
HT29 or NTR1-expressing HEK293 cells were trypsinized and seeded into black flat clear-bottom 96-well plates (Corning, Amsterdam, The Netherlands) at 6×10^5 cells per well. […] For agonist assays, serial dilutions of agonistic substances were added to the cells loaded with dye and the change of the fluorescent signal was recorded continually for approx. 90 s using a FlexStation II (Molecular Devices, Biberach, Germany). […] For antagonist assays, cells loaded with 100 μl of Ca5-dye were pre-incubated with serial dilutions of antagonistic substances for 30 min, before the EC80-concentration of agonist was added to the cells and the change of the fluorescent signal was recorded continually for approx. 90 s. […]

A further assay deals with T4, CCK1 (CCKA) (h) (Homo sapiens, UniProt P32238).
T4 construct: Cerep P1
T4 sequence (P32238 1-428): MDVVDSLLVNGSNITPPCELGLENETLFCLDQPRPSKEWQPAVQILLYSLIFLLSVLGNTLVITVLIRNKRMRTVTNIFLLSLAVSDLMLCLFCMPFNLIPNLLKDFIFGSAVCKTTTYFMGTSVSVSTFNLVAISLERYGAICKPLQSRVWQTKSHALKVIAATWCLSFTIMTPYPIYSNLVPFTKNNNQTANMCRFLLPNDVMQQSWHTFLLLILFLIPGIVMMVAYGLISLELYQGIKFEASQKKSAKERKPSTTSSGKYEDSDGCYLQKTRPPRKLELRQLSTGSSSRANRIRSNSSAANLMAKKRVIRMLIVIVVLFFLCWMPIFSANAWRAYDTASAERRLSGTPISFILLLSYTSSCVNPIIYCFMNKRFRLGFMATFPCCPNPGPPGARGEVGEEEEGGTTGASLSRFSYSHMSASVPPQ
The assay is described as follows: ExpresSProfile CCK1 (CCKA) (h) agonist radioligand. It counts as binding. Particulars: Reference Compound.

The next assay concerns the target T5, delta 2 (DOP) (h) (Homo sapiens, UniProt P41143).
T5 construct: Cerep (contract assay) P1
The assay is described as follows: ExpresSProfile delta 2 (DOP) (h) agonist radioligand. It counts as binding. Particulars: Reference Compound.

A further assay addresses KV channel. Put plainly: ExpresSProfile KV channel antagonist radioligand. In kind it is binding. The conditions noted are these: Reference Compound; read-out: Ki Ref.
The target in a further assay is T6, B2 (h) (Homo sapiens, UniProt P30411).
T6 construct: Cerep P1
T6 sequence (P30411 1-391): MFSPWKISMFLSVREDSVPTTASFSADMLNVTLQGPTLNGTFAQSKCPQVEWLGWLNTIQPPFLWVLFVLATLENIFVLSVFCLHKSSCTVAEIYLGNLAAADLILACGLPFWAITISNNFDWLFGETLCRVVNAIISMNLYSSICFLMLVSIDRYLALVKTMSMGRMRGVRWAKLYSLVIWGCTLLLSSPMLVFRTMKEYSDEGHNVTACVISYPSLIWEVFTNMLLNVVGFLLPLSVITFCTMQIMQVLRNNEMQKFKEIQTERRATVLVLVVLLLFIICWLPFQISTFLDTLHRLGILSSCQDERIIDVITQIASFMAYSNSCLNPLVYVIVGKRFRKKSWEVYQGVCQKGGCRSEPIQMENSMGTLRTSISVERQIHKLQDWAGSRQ
The assay is described as follows: ExpresSProfile B2 (h) agonist radioligand. It counts as binding.

T3 sequence (P30989 whole entry): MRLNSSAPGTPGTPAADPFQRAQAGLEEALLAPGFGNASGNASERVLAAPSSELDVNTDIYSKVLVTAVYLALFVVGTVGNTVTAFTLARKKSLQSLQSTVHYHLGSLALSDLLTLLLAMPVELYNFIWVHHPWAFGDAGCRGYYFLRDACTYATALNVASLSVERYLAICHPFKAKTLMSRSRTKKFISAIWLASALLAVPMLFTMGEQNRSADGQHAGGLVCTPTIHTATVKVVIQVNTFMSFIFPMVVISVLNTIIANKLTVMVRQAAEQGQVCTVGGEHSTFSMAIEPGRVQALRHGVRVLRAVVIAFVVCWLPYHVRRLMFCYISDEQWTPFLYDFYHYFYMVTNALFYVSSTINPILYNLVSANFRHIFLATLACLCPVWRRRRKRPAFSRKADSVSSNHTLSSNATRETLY
T5 sequence (P41143 whole entry): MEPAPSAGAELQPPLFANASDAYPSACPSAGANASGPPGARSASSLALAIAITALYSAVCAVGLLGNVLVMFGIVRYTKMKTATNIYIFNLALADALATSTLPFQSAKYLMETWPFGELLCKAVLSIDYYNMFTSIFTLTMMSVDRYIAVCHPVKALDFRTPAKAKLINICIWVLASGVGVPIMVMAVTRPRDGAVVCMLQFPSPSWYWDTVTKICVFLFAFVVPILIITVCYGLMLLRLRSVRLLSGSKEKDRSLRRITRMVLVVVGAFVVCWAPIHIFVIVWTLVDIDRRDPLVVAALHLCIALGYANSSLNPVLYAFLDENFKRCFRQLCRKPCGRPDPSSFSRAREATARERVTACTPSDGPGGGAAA

Turning to “MIP-1alpha: reference compound, CCR1 (h) assay”, the Ki with CCR1 (h) stood at 41 pM. In the case of “IL-8: reference compound, CXCR2 (IL-8B) (h) assay”, in the assay with CXCR2 (IL-8B) (h), the “nH Ref” value stood at 1.4. Further, the Ki with CXCR2 (IL-8B) (h) (read-out: Ki Ref) was 56 pM. Consider `COc1cccc(OC)c1-c1cc(C(=O)NC2(C(=O)O)C3CC4CC(C3)CC2C4)nn1-c1ccc(C(=O)N(C)CCCN(C)CCCN(C)C(=O)c2ccc(F)cc2)cc1C(C)C` (stereo not drawn) [(IIIg), 2-{[5-(2,6-Dimethoxy-phenyl)-1-(4-{[3-({3-[(4-fluoro-benzoyl)-methyl-amino]-propyl}-methyl-amino)-propyl]-methyl-carbamoyl}-2-isopropyl-phenyl)-1H-pyrazole-3-carbonyl]-amino}-adamantane-2-carboxylic acid], for which the IC50 on NTR1 [1] turned out to be 2 nM. Regarding `CNCCCN(C)CCCN(C)C(=O)c1ccc(-n2nc(C(=O)NC3(C(=O)O)C4CC5CC(C4)CC3C5)cc2-c2c(OC)cccc2OC)c(C(C)C)c1` (stereo not drawn) [(III), 2-({5-(2,6-Dimethoxy-phenyl)-1-[2-isopropyl-4-(methyl-{3-[methyl-(3-methylamino-propyl)-amino]-propyl}-carbamoyl)-phenyl]-1H-pyrazole-3-carbonyl}-amino)-adamantane-2-carboxylic acid], the “IC50 [nM] RLB” value at NTR1 [1] is “single digit nanomolar”. Besides, the “IC50 [nM] Ca” value at NTR1 [2] was “single digit nanomolar”. Turning to CCK-8s, the “nH Ref” value at CCK1 (CCKA) (h) stood at 0.6. Turning to DPDPE, at delta 2 (DOP) (h), the “nH Ref” value is listed as 0.9. As for alpha-dendrotoxin, the Ki at KV channel came to 200 pM. In the case of `COc1cccc(OC)c1-c1cc(C(=O)NC2(C(=O)O)C3CC4CC(C3)CC2C4)nn1-c1ccc(C(=O)N(CCCN)CCCN(C)C)cc1C(C)C` (stereo not drawn) [(V), 2-{[1-{4-[(3-Amino-propyl)-(3-dimethylamino-propyl)-carbamoyl]-2-isopropyl-phenyl}-5-(2,6-dimethoxy-phenyl)-1H-pyrazole-3-carbonyl]-amino}-adamantane-2-carboxylic acid], on NTR1 [1], the “IC50 [nM] RLB” value was “single digit nanomolar”. In addition, the “IC50 [nM] Ca” value at NTR1 [2] was “single digit nanomolar”. Consider NPC 567, for which, on B2 (h), the “nH Ref” value was found to be 0.9.
